SMILES strings stand for the structures. Active and inactive are the calls of the source. The rule behind the calls is not given here.

In ChEMBL document CHEMBL3244333, “2-Acetylpyridine thiosemicarbazones. 2. N4,N4-Disubstituted derivatives as potential antimalarial agents” (J Med Chem, 1979) one finds Activity and Survival data, which are given here for 17 compounds.

Data set [1] has as its system Plasmodium berghei. Put plainly: Antimalarial activity against Plasmodium berghei KBG 173 infected in mouse assessed as cured animal from parasite infection at 320 mg/kg. Type of data set: functional, organism-based. Set-up: dose 320 mg/kg.
In data set [2] the test system is Plasmodium berghei. Put plainly: Antimalarial activity against Plasmodium berghei KBG 173 infected in mouse assessed as cured animal from parasite infection at 160 mg/kg. Set-up: dose 160 mg/kg. In kind it is functional, organism-based.
Data set [3] deals with Plasmodium berghei. Put plainly: Antimalarial activity against Plasmodium berghei KBG 173 infected in mouse assessed as cured animal from parasite infection at 640 mg/kg. In kind it is functional, organism-based. The arrangement: dose 640 mg/kg.
The subject of data set [4] is Plasmodium berghei. Put plainly: Antimalarial activity against Plasmodium berghei KBG 173 infected in mouse assessed as increase of mean survival time at 80 mg/kg. Type of data set: functional.
The test system of data set [5] is Plasmodium berghei. Briefly: Antimalarial activity against Plasmodium berghei KBG 173 infected in mouse assessed as increase of mean survival time at 40 mg/kg. In kind it is functional.
In data set [6] the test system is Mus musculus. Briefly: Toxicity in Plasmodium berghei KBG 173 infected mouse at 160 mg/kg. The settings on record: in vivo. Type of data set: organism-based. The arrangement: dose 160 mg/kg.
The subject of data set [7] is Mus musculus. Briefly: Toxicity in Plasmodium berghei KBG 173 infected mouse at 640 mg/kg. In kind it is organism-based. The note with it: in vivo. The arrangement: dose 640 mg/kg.
Data set [8] has as its system Mus musculus. Briefly: Toxicity in Plasmodium berghei KBG 173 infected mouse at 80 mg/kg. In kind it is organism-based. The arrangement: dose 80 mg/kg. The note with it: in vivo.
Data set [9] concerns Mus musculus. Put plainly: Toxicity in Plasmodium berghei KBG 173 infected mouse at 320 mg/kg. In kind it is organism-based. Set-up: dose 320 mg/kg. The settings on record: in vivo.
The test system of data set [10] is Plasmodium berghei. Put plainly: Antimalarial activity against Plasmodium berghei KBG 173 infected in mouse assessed as cured animal from parasite infection at 80 mg/kg. In kind it is functional, organism-based. The arrangement: dose 80 mg/kg.
For data set [11], the system named is Plasmodium berghei. Briefly: Antimalarial activity against Plasmodium berghei KBG 173 infected in mouse assessed as cured animal from parasite infection at 40 mg/kg. In kind it is functional, organism-based. Set-up: dose 40 mg/kg.
Data set [12] has as its system Plasmodium berghei. Briefly: Antimalarial activity against Plasmodium berghei KBG 173 infected in mouse assessed as increase of mean survival time at 640 mg/kg. In kind it is functional.
Data set [13] deals with Plasmodium berghei. Put plainly: Antimalarial activity against Plasmodium berghei KBG 173 infected in mouse assessed as increase of mean survival time at 320 mg/kg. Type of data set: functional.
The subject of data set [14] is Plasmodium berghei. Put plainly: Antimalarial activity against Plasmodium berghei KBG 173 infected in mouse assessed as increase of mean survival time at 160 mg/kg. In kind it is functional.
The test system of data set [15] is Mus musculus. Put plainly: Toxicity in Plasmodium berghei KBG 173 infected mouse at 40 mg/kg. Type of data set: organism-based. The arrangement: dose 40 mg/kg. The note with it: in vivo.

For the compound `C/C(=N/NC(=S)N1CCC(Cc2ccccc2)CC1)c1ccccn1`, the outcome in [1], in data set [2] and in data set [3] was Active. The Survival worked out at 2.8 days in data set [4] and 0.4 days in data set [5].
Take `C/C(=N/NC(=S)N(C)Cc1ccccc1)c1ccccn1`: the result in data set [1], in data set [2], in [3] and in data set [10] was Active. Besides, the Activity entry in data set [6], in data set [7], in [8] and in data set [9] was “Toxic” each time. Also, in data set [5], the Survival is 4 days.
Consider `C/C(=N/NC(=S)N1CCCCCC1)c1ccccn1`, for which the result in data set [11], in [1], in data set [2], in data set [3] and in data set [10] was Active. Also, the Activity entry in data set [6], in data set [7] and in data set [9] was “Toxic” in each case. Further, the Survival in [5] was found to be 6.2 days.
Turning to `C/C(=N/NC(=S)N1CC2CCC(CC2)C1)c1ccccn1`, the Survival worked out at 0.4 days in [12] and 0.2 days in [13]. Moreover, the result in data set [11], in data set [2] and in data set [10] was Active. Moreover, the Activity entry in data set [7] was “Toxic”.
Consider `C/C(=N/NC(=S)N1C(C)CCCC1C)c1ccccn1` (stereo not drawn), for which the outcome in [1] and in [3] was Active. In addition, the Activity entry in data set [7] is listed as “Toxic”. In addition, the Survival in data set [14] was 6.3 days; in data set [4], 1.6 days; in data set [5], 0.5 days.
`C/C(=N/NC(=S)N1CCN(c2ccccc2)CC1)c1ccccn1`: the Survival in data set [12] is -0.4 days; in [13], -0.1 days; in [4], 11.7 days; in data set [5] it was 7 days. Moreover, the result in [11], in data set [2], in data set [3] and in data set [10] was Active. Further, the Activity entry in data set [7] and in data set [9] was “Toxic” each time.
As to `C/C(=N/NC(=S)N(C)C1CCCC1)c1ccccn1`, the Survival in data set [12] worked out at 0 days; in data set [13] it was 6 days; in data set [5] it was 1.5 days. The result in data set [1], in data set [2], in data set [3] and in data set [10] was Active. In addition, the Activity entry in [7] and in data set [9] was “Toxic” each time.
`CCN(CC)C(=S)N/N=C(/C)c1ccccn1`: the Survival came out at 0 days in data set [12] and 7.2 days in data set [5]. Also, the result in data set [11], in data set [2], in [3] and in [10] was Active. Besides, the Activity entry in [6], in data set [7] and in data set [8] was “Toxic” each time.
As for `C/C(=N/NC(=S)N(C)C1CCCCCCC1)c1ccccn1`, the figures for the Survival in data set [12], in data set [4] and in [5] were 12.1 days, 9.6 days and 3.2 days, respectively. Further, the result in data set [1], in [2], in data set [3] and in [10] was Active. For the same compound, the Activity entry in data set [7] is reported as “Toxic”.
Turning to `C/C(=N/NC(=S)N1CC(C)CC(C)C1)c1ccccn1` (stereo not drawn), the Survival is -0.4 days in [12], 0 days in data set [13] and 5.6 days in data set [5]. Moreover, the result in [1], in data set [2] and in data set [10] was Active. Further, the Activity result in data set [7] and in data set [9] was “Toxic” each time.
Consider `C/C(=N/NC(=S)N1C(C)CCC1C)c1ccccn1` (stereo not drawn), for which the Survival worked out at 0 days in data set [12], 0 days in data set [13] and 4.7 days in [5]. The result in data set [1], in [2], in data set [3] and in [10] was Active. In addition, the Activity result in data set [6], in data set [7] and in [9] was “Toxic” in each case.
For the compound `C/C(=N/NC(=S)N1CCN(c2cccc(C(F)(F)F)c2)CC1)c1ccccn1`, the result in [1], in data set [2] and in [3] was Active. Further, the Activity entry in [7] and in [9] was “Toxic” each time. The values for the Survival in data set [4] and in [5] were 2.4 days and 0.1 days, respectively.
For the compound `CCCCN(C)C(=S)N/N=C(/C)c1ccccn1`, the Survival worked out at 0 days in data set [12]; 0 days in [13]; 6.9 days in data set [14]; 8.1 days in [4]; 5.9 days in [5]. Also, the result in data set [1], in [2], in data set [3] and in [10] was Active. The Activity result in [6], in [7] and in data set [9] was “Toxic” in each case.
Regarding `C/C(=N/NC(=S)N1CCN(c2ccccn2)CC1)c1ccccn1`, the results for the Survival in data set [12] and in data set [13] were 0 days and 0.7 days, respectively. Besides, the Activity entry in data set [7] and in data set [9] was “Toxic” each time.
Take `C/C(=N/NC(=S)N1CCN(Cc2ccccc2)CC1)c1ccccn1`: the outcome in data set [1] and in data set [3] was Active. Besides, the Survival in data set [14] was determined as 5.6 days; in data set [4], 4.4 days; in data set [5], 1.6 days.
Take `C/C(=N/NC(=S)N(C)CCc1ccccn1)c1ccccn1`: the Survival was found to be 0 days in [12]; 6.7 days in data set [13]; 0 days in [14]; 3.3 days in data set [4]; 1.7 days in data set [5]. The outcome in [1] and in data set [2] was Active. For the same compound, the Activity entry in data set [6], in data set [7], in data set [15] and in data set [9] was “Toxic” each time.
`C/C(=N/NC(=S)N1CC=C(c2ccccc2)CC1)c1ccccn1`: the result in data set [1], in [2] and in data set [3] was Active. Also, the Survival is 2 days in data set [4] and 0.8 days in [5].
